Reference: PMC9224512, “New Insights into the Determinants of Specificity in Human Type I Arginase: Generation of a Mutant That Is Only Active with Agmatine as Substrate” (International Journal of Molecular Sciences, 2022)
Substitutions are numbered along the chain they refer to.

Key:
[1] = target: T1, WT-arginase (human arginase type I) (Homo sapiens, UniProt P05089); assay: Kinetic and inhibition studies, wild-type human arginase type I; type: biochemical; conditions: for Inhibition type / Kis (Ki): substrate arginine
T1 construct: made in house; host or cells: E. coli JM109
T1 sequence (P05089 1-322): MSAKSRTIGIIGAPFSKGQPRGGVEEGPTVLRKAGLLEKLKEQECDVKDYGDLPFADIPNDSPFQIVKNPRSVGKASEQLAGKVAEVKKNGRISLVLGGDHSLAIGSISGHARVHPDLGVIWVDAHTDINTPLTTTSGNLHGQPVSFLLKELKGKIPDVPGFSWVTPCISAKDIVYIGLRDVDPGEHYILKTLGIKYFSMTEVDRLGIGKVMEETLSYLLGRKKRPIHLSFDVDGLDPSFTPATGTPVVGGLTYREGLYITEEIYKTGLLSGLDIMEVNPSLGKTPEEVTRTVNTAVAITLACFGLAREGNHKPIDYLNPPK
Method: (§1) Bacterial cultures were grown with shaking at 37 °C in Luria Broth media, in the presence of ampicillin (100 μg/mL). The wild-type and mutant human liver arginase cDNAs were directionally cloned into the pBluescript II KS(+) expression vector and then expressed in E. coli JM109, following induction with 1 mM isopropyl β-D-thiogalactopyranoside. The bacterial cells were disrupted by sonication on ice (5 × 30 s pulses), centrifuged for 20 min at 12,000× g, and the obtained supernatant was precipitated with ammonium sulfate (60% saturation). The pellet, collected by centrifugation at 12,000× g for 10 min, was re-suspended in buffer 5 mM Tris–HCl (pH 7.5) containing 2 mM MnCl2 and dialyzed for 6 h at 4 °C against the same buffer. After incubation with 5 mM MnCl2 for 10 min at 60 °C, the enzyme variants were purified as previously described. The purity of the enzymes was evaluated by SDS–PAGE stained by Coomassie blue and immunodetection using an anti- rat arginase I antibody.
(§2) All assays were initiated by adding the enzyme to a previously equilibrated buffer with the substrate in solution (the concentrations of used substrates were between 0.2–3 fold the Km). Urea was determined by a colorimetric method with α-isonitrosopropiophenone. The protein concentrations were determined by the Bradford’s method, with bovine serum albumin as standard. Initial velocity and enzymatic inhibition experiments were performed in duplicate and repeated three times. The inhibitory patterns were initially determined by double reciprocal plots and re-plots of intercepts and slopes versus inhibitor concentrations. […] Velocities are expressed as μmol of urea/10 min.

[2] = target: T2, Chimera A1 (I129T/N130Y/T131A) of human arginase type I (Homo sapiens, UniProt P05089, I129T/N130Y/T131A); assay: Kinetic and inhibition studies, Chimera A1; type: biochemical; conditions: substrate arginine
T2 sequence (P05089 1-322 I129T/N130Y/T131A): T1 sequence (P05089 1-322) with I129T, N130Y, T131A
Method: as §1
(§3) The single, double, triple, and chimera variants of human arginase type I were obtained by PCR, using the QuickChange site-directed mutagenesis kit (Stratagene, La Jolla, CA, USA); the plasmid pBluescript II KS(+) containing the human liver arginase cDNA was used as template. To obtain the chimeric species of human arginase type I, serial mutations were made in each loop to be modified, using as template DNA the wild-type arginase gene or the previous done mutation, subcloned in the plasmid pBluescript II KS (+). Specifically, the residues present in the arginase structure were replaced by those corresponding to the agmatinase sequence of E. coli.
as §2

[3] = target: T3, Chimera A2 (I129T/N130Y/T131A+∆ P132-T134) of human arginase type I (Homo sapiens, UniProt P05089, DEL129-131/I129T/L133Y/N130Y/P132T/T134A); assay: Kinetic and inhibition studies, Chimera A2; type: biochemical; conditions: substrate agmatine
T3 construct: made in house; host or cells: E. coli JM109
T3 sequence (P05089 with tags, fused parts or gaps DEL129-131/P132T/L133Y/T134A): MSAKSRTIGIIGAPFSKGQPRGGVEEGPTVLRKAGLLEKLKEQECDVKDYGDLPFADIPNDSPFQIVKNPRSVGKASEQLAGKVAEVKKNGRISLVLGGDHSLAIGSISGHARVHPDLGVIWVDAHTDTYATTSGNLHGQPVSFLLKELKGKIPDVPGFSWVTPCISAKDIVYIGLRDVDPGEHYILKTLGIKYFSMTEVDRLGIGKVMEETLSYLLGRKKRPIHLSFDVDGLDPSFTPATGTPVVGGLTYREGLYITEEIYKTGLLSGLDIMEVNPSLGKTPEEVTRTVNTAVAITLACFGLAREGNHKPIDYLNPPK
Method: as §1, §3, §2

[4] = target: T4, type I human arginase D181T (Homo sapiens, UniProt P05089, D181T); assay: Kinetic and inhibition studies, D181T mutant; type: biochemical; conditions: substrate arginine
T4 sequence (P05089 1-322 D181T): T1 sequence (P05089 1-322) with D181T
Method: as §1, §3, §2

[5] = target: T5, type I human arginase V182E (Homo sapiens, UniProt P05089, V182E); assay: Kinetic and inhibition studies, V182E mutant; type: biochemical; conditions: substrate arginine
T5 sequence (P05089 1-322 V182E): T1 sequence (P05089 1-322) with V182E
Method: as §1, §3, §2

[6] = target: T6, type I human arginase D181T/V182E (Homo sapiens, UniProt P05089, D181T/V182E); assay: Kinetic and inhibition studies, D181T/V182E double mutant; type: biochemical; conditions: substrate arginine
T6 construct: made in house; host or cells: E. coli JM109
T6 sequence (P05089 1-322 D181T/V182E): T1 sequence (P05089 1-322) with D181T, V182E
Method: as §1, §3, §2

[7] = target: T7, type I human arginase D181T/V182E + ins F (Homo sapiens, UniProt P05089, D181E/D181T/INS180T/V182E/V182F); assay: Kinetic and inhibition studies, D181T/V182E + ins F; type: biochemical; conditions: substrate arginine
T7 sequence (P05089 with tags, fused parts or gaps INS180T/D181E/V182F): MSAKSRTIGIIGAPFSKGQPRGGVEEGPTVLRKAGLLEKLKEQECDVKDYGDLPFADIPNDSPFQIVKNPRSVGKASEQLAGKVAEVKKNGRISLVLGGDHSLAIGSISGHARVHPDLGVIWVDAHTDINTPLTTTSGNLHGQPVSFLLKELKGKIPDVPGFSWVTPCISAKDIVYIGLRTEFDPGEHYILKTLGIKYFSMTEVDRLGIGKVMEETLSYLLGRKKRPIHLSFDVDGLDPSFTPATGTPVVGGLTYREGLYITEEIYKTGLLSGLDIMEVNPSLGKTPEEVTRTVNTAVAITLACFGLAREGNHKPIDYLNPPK
Method: as §1, §3, §2

[8] = target: T8, human arginase type I N130D (Homo sapiens, UniProt P05089, N130D); assay: Kinetic and inhibition studies, N130D mutant; type: biochemical; conditions: arginine 5 mM, pH 9.5; Figure 3A
T8 sequence (P05089 1-322 N130D): T1 sequence (P05089 1-322) with N130D
Method: as §1, §3, §2

[9] = target: T9, human arginase type I S137C (Homo sapiens, UniProt P05089, S137C); assay: Kinetic and inhibition studies, S137C mutant; type: biochemical; conditions: arginine 5 mM, pH 9.5; Figure 3A
T9 sequence (P05089 1-322 S137C): T1 sequence (P05089 1-322) with S137C
Method: as §1, §3, §2

[10] = target: T10, human arginase type I N139D (Homo sapiens, UniProt P05089, N139D); assay: Kinetic and inhibition studies, N139D mutant; type: biochemical; conditions: arginine 5 mM, pH 9.5; Figure 3A
T10 sequence (P05089 1-322 N139D): T1 sequence (P05089 1-322) with N139D
Method: as §1, §3, §2

E. coli agmatinase = target: T11, E. coli agmatinase (Escherichia coli, UniProt P60651); assay: Kinetic studies, E. coli agmatinase; type: biochemical; conditions: substrate = labelled compound; n/a = no activity with the substrate
T11 sequence (P60651 1-306): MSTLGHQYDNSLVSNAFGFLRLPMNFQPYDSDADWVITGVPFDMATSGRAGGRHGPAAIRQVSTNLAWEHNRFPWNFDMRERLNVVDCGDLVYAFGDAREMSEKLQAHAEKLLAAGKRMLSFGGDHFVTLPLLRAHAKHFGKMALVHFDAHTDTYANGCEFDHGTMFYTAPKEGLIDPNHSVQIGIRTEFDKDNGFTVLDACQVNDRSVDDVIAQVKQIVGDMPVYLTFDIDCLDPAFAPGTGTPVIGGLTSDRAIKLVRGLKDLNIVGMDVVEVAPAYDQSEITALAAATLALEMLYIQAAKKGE
Method: as §2

rat liver arginase = test system: rat liver arginase; design: method as in PMID 8031143; conditions: substrate agmatine; cited from earlier work

| Kis (Ki) ([1]; pH 9.5) [mM] | Inhibition type [3] | Kis [3] [mM] | Inhibition type [4] | Kis [4] [mM] | Inhibition type [5] | Kis [5] [mM] | Inhibition type [6] | Kis (Ki) [6] [mM] | Inhibition type [7] | Kis [7] [mM] | SMILES | Inhibition type [1] | Inhibition type [2] | Kis (Ki) [2] [mM] | Inhibition of arginase activity by agmatine ([1]; arginine 5 mM, pH 9.5, Figure 3A) | Inhibition of arginase activity by agmatine [8] | Inhibition of arginase activity by agmatine [9] | Inhibition of arginase activity by agmatine [10] | kcat (E. coli agmatinase) [s⁻¹] | kcat, times lower than for arginine (rat liver arginase) |
| --- | --- | --- | --- | --- | --- | --- | --- | --- | --- | --- | --- | --- | --- | --- | --- | --- | --- | --- | --- | --- |
| 56 ± 4 | linear competitive inhibition | 40 ± 6 | Competitive | 85 ± 10 | Competitive | 89 ± 12 | Competitive | 80 ± 5 | Competitive | 70 ± 10 | N=C(N)N [Guanidine, guanidine] | Competitive | Competitive | 38 ± 6 |  |  |  |  |  |  |
|  | competitive |  |  |  |  |  | competitively inhibited |  |  |  | NCCCCN [Putrescine, putrescine] |  |  |  |  |  |  |  |  |  |
| 5 |  |  |  |  |  |  | competitively inhibited | 42 |  |  | NCCCC[C@H](N)C(=O)O [Lysine, lysine] |  |  |  |  |  |  |  |  |  |

| SMILES | Kis (Ki) ([1]; pH 9.5) [mM] | Inhibition type [3] | Kis [3] [mM] | Inhibition type [4] | Kis [4] [mM] | Inhibition type [5] | Kis [5] [mM] | Inhibition type [6] | Kis (Ki) [6] [mM] | Inhibition type [7] | Kis [7] [mM] | Inhibition type [1] | Inhibition type [2] | Kis (Ki) [2] [mM] | Inhibition of arginase activity by agmatine ([1]; arginine 5 mM, pH 9.5, Figure 3A) | Inhibition of arginase activity by agmatine [8] | Inhibition of arginase activity by agmatine [9] | Inhibition of arginase activity by agmatine [10] | kcat (E. coli agmatinase) [s⁻¹] | kcat, times lower than for arginine (rat liver arginase) |
| --- | --- | --- | --- | --- | --- | --- | --- | --- | --- | --- | --- | --- | --- | --- | --- | --- | --- | --- | --- | --- |
| N=C(N)NCCCCN [Agmatine, 1-amino-4-guanidinobutane] | 42 ± 5 |  |  |  |  |  |  |  |  |  |  | Competitive | Competitive | 27 ± 2 | poorly inhibited | markedly sensitive | markedly sensitive | markedly sensitive | 120 ± 10 | approximately 5000 times |
